Experimental data: ChEMBL document CHEMBL1142821, “Identification of potent type I MetAPs inhibitors by simple bioisosteric replacement. Part 2: SAR studies of 5-heteroalkyl substituted TCAT derivatives” (Bioorg Med Chem Lett, 2005)

Key:
[1] = target: T1, Methionine aminopeptidase 1 (Saccharomyces cerevisiae S288c, UniProt Q01662); assay: Inhibitory concentration against ScMetAP1 enzyme activity
T1 sequence (Q01662 whole entry): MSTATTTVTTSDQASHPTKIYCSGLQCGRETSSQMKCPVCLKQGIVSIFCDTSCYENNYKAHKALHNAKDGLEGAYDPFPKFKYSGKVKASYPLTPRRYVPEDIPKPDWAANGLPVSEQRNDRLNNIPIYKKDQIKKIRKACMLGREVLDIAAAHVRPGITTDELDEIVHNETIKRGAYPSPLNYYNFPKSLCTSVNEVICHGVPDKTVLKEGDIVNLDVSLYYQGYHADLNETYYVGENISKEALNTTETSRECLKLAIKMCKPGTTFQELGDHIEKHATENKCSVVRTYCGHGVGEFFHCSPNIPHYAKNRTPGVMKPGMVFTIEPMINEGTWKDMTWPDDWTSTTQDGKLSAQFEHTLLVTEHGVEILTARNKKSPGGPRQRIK

[2] = target: T2, Methionine aminopeptidase (Escherichia coli K-12, UniProt P0AE18); assay: Inhibitory concentration against EcMetAP1 enzyme activity
T2 sequence (P0AE18 whole entry): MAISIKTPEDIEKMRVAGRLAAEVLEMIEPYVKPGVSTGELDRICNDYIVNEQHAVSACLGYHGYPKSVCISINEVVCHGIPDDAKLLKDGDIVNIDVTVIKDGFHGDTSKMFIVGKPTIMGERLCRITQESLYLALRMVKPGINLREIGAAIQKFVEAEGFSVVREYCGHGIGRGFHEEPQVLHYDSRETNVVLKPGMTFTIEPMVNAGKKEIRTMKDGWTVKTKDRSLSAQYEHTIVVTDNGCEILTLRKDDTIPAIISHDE

Row | SMILES | IC50 [1] [nM] | IC50 [2] [nM]
1 | CO[C@@H](Cc1scnc1C(=O)Nc1nccs1)c1ccccc1 | 450 | 66
2 | O=C(Nc1nccs1)c1ncsc1CN1CCOCC1 | 1760 | 55
3 | COC(C)(C)Cc1scnc1C(=O)Nc1nccs1 | 3210 | 69
4 | O=C(Nc1nccs1)c1ncsc1CN1CCCCC1 | 75 | 10
5 | O=C(Nc1nccs1)c1ncsc1CCN1CCCCC1 | 410 | 45
6 | O=C(OCCc1scnc1C(=O)Nc1nccs1)c1ccccc1 | 3080 | 41
7 | CC(=O)OCCc1scnc1C(=O)Nc1nccs1 | 17900 | 310
8 | Cc1ccc(S(=O)(=O)OCCc2scnc2C(=O)Nc2nccs2)cc1 | 3720 | 1530
9 | O=C(Nc1nccs1)c1ncsc1CN1CCCC1 | 350 | 25
10 | COc1ccc(C(Cc2scnc2C(=O)Nc2nccs2)OC)cc1 (centres undefined) | 310 | 23
11 | O=C(COCc1ccccc1)OCCc1scnc1C(=O)Nc1nccs1 | 550 | 130
12 | CCCCC(Cc1scnc1C(=O)Nc1nccs1)OC (centres undefined) | 450 | 100
13 | COC(Cc1scnc1C(=O)Nc1nccs1)c1ccccc1F (centres undefined) | 270 | 34
14 | O=C(Nc1nccs1)c1ncsc1CCOCc1ccccc1 | 4250 | 90
15 | COC(c1ccccc1)c1scnc1C(=O)Nc1nccs1 (centres undefined) | 750 | 61
16 | COC(Cc1scnc1C(=O)Nc1nccs1)C1CCCCC1 (centres undefined) | 400 | 54

Row | SMILES | IC50 [1] [nM] | IC50 [2] [nM]
17 | COC(Cc1scnc1C(=O)Nc1nccs1)c1cccc(Cl)c1 (centres undefined) | 520 | 90
18 | CO[C@H](Cc1scnc1C(=O)Nc1nccs1)c1ccccc1 | 450 | 36
19 | COc1ccccc1C(Cc1scnc1C(=O)Nc1nccs1)OC (centres undefined) | 570 | 35
20 | COc1cc(C(=O)OCCc2scnc2C(=O)Nc2nccs2)cc(OC)c1OC | 1560 | 160
21 | COC(Cc1scnc1C(=O)Nc1nccs1)c1cccc(F)c1 (centres undefined) | 340 | 37
22 | O=C(Nc1nccs1)c1ncsc1CCOC(=O)C1CCCC1 | 800 | 140
23 | CCOC(Cc1scnc1C(=O)Nc1nccs1)C(C)C (centres undefined) | 150 | 28
24 | COC(Cc1scnc1C(=O)Nc1nccs1)CC(C)C (centres undefined) | 500 | 90
25 | COCc1scnc1C(=O)Nc1nccs1 | 7530 | 97
26 | COC(Cc1scnc1C(=O)Nc1nccs1)c1ccccc1 (centres undefined) | 440 | 43
27 | O=C(Nc1nccs1)c1ncsc1CCO | 10400 | 470
28 | COCCc1scnc1C(=O)Nc1nccs1 | 6430 | 150
29 | O=C(Cc1ccccc1)OCCc1scnc1C(=O)Nc1nccs1 | 6040 | 33
30 | COC(Cc1scnc1C(=O)Nc1nccs1)c1ccc(Cl)cc1 (centres undefined) | 570 | 33
31 | COC(Cc1scnc1C(=O)Nc1nccs1)c1ccccc1Cl (centres undefined) | 230 | 170
32 | COC(Cc1scnc1C(=O)Nc1nccs1)c1ccc(F)cc1 (centres undefined) | 390 | 57
